Entries after “also recorded” stand apart in the source; their conditions may differ.
Assays:
[1] = Heat stability test (UV-absorption left after storage at 50° C.); type: physicochemical; details: for Heat stability: UV-absorption left after 5 days: 5 days at 50° C. in the dark; for Heat stability: UV-absorption left after 5 days / Heat stability: UV-absorption left after 50 days / Heat stability: UV-absorption left after 100 days: 1.5% in C12-C15 alkyl benzoate oil (compound 12: 5% in water), 375 nm versus sample stored at room temperature; for Heat stability: UV-absorption left after 50 days: 50 days at 50° C. in the dark; for Heat stability: UV-absorption left after 100 days: 100 days at 50° C. in the dark; for heat stability, in words: in C12-C15 alkylbenzoate oils
Protocol: Hereto, 1.5% solutions were prepared of compounds 4-11 and 13 in C12-C15 alkyl benzoate oil. […] The solutions were stored in closed vessels at 50° C. in the dark. After 5, 50 and 100 days, the UV-absorption of a diluted sample was measured at 375 nm comparative to a corresponding sample stored at room temperature. The UV-absorption left after each time span is shown in Table 4 indicated by + and − signs. ++ means >95% left, +− implies between 50-95% left, − indicates <50% left.

[2] = tested on: human skin; experiment: Skin penetration test in diffusion cell; type: in vitro ADME; details: for penetration into or through the skin (UV analysis of DMSO skin extracts), in words / penetration through the skin (UV-analysis of collected receptor fluids), in words: human skin, diffusion cell; for penetration through the skin (UV-analysis of collected receptor fluids), in words: 20 hrs
Protocol: The skin-penetration was evaluated based on the same method described on page 21 of WO2006/009451. FIG. 2 is a drawing of the skin penetration test equipment, wherein (1) indicates the position of the test sample (donor compound), (2) an ⅛″ OD× 1/32″ wall tubing, (3) the receptor input, (4) the receptor compartment and (5) the compound and receptor output that is subjected to analysis.
A compound 3 donor solution was prepared by dissolving 30 mg of compound 3 in 4 ml EtOH and 7 ml phosphate buffer (PBS) at pH 7.4. Compound 4, 6, 7, 8 and 9 donor solutions were prepared by dispersing 80 mg of these compounds in olive oil.
For each compound 4 pieces of human skin (Ø ca 3 cm, mostly epidermis) were applied on a dialysis membrane and mounted into the diffusion cell shown in the FIG. 2. The figure is a schematic drawing of the diffusion cell, wherein is indicated 1: donor compound, 2: receptor compartment, 3: receptor input, 4: compound and receptor output for analysis, 5: ⅛″ OD× 1/32″ wall tubing. The cells were mounted on a temperature controlling and stirring device. The temperature was kept at 37°. The receptor fluid was a PBS buffer. The receptor compartment was stirred magnetically. 400 μl of the donor solution was applied. The receptor fluid flowing at a speed of 1 ml/hr was collected into glass tubes (1 tube/2 hrs). After 20 hrs the penetration experiment was terminated.
Furthermore the skin parts were extracted with DMSO to dissolve any UV-absorber in the epidermis. The extracts were analysed by UV.

[3] = Solubility test in C12-C15 alkyl benzoate oil (Finsolv TN); type: physicochemical; set-up: key to Solubility in Finsolv TN, dissolved amount (m/m %) 1% / Solubility in Finsolv TN, dissolved amount (m/m %) 5% / Solubility in Finsolv TN, dissolved amount (m/m %) 20% / Solubility in Finsolv TN, dissolved amount (m/m %) 50% / Solubility in Finsolv TN, dissolved amount (m/m %) 80% / Solubility in Finsolv TN, dissolved amount (m/m %) 90%: +=well-soluble; −=not soluble; details: dissolved at 80° C. for 1 hour, cooled to room temperature, inspected after 24 hours; for Solubility in Finsolv TN, dissolved amount (m/m %) 1%: 1% m/m; for Solubility in Finsolv TN, dissolved amount (m/m %) 5%: 5% m/m; for Solubility in Finsolv TN, dissolved amount (m/m %) 20%: 20% m/m; for Solubility in Finsolv TN, dissolved amount (m/m %) 50%: 50% m/m; for Solubility in Finsolv TN, dissolved amount (m/m %) 80%: 80% m/m; for Solubility in Finsolv TN, dissolved amount (m/m %) 90%: 90% m/m
Protocol: The aminobutadiene compounds according to the present invention have an optimised solubility for cosmetic oils. […] In Table 3, the solubility of compounds 4, 12 and 13 is shown at various concentrations (+=well-soluble; -=not soluble). The compounds were dissolved at 80° C. while stirring for 1 hour and cooled down to room temperature. After 24 hours the solutions were inspected for any precipitates or crystals.

SMILES	Heat stability: UV-absorption left after 5 days [1]	Heat stability: UV-absorption left after 50 days [1]	Heat stability: UV-absorption left after 100 days [1]	heat stability, in words [1]	penetration into or through the skin (UV analysis of DMSO skin extracts), in words [2]	penetration through the skin (UV-analysis of collected receptor fluids), in words [2]	Solubility in Finsolv TN, dissolved amount (m/m %) 1% [3]	Solubility in Finsolv TN, dissolved amount (m/m %) 5% [3]	Solubility in Finsolv TN, dissolved amount (m/m %) 20% [3]	Solubility in Finsolv TN, dissolved amount (m/m %) 50% [3]	Solubility in Finsolv TN, dissolved amount (m/m %) 80% [3]	Solubility in Finsolv TN, dissolved amount (m/m %) 90% [3]	Presence in receptor fluid after 6 h ([2]; human skin (mostly epidermis), 37°, PBS receptor fluid, compound 3 donor in EtOH/PBS pH 7.4, others dispersed in olive oil, UV-analysis)	Presence in skin extract ([2]; skin parts extracted with DMSO after the penetration experiment, UV analysis)
CCCCCCCCOC(=O)/C(=C/C=C/NCCCCCCN(/C=C\C=C(/C(=O)OCCCCCCCC)S(=O)(=O)c1ccccc1)CCCCCCN/C=C/C=C(\C(=O)OCCCCCCCC)S(=O)(=O)c1ccccc1)S(=O)(=O)c1ccccc1 [Compound 5, reference compound]	++ (++ means >95% left)	+− (+− implies between 50-95% left)	+− (+− implies between 50-95% left)											
CCCCCCCCOC(=O)C(=CC=CN(CCCC)CCCCCCN(C=CC=C(C(=O)OCCCCCCCC)S(=O)(=O)c1ccccc1)CCCCCCN(C=CC=C(C(=O)OCCCCCCCC)S(=O)(=O)c1ccccc1)CCCC)S(=O)(=O)c1ccccc1 [Compound 6]	++ (++ means >95% left)	++ (++ means >95% left)	++ (++ means >95% left)	very heat stable	do not penetrate into or through the skin	no penetration								
CCCCCCCCOC(=O)C(=CC=CN(CCN(CCN(C=CC=C(C(=O)OCCCCCCCC)S(=O)(=O)c1ccccc1)Cc1ccccc1)CCN(C=CC=C(C(=O)OCCCCCCCC)S(=O)(=O)c1ccccc1)Cc1ccccc1)Cc1ccccc1)S(=O)(=O)c1ccccc1 [Compound 7]	++ (++ means >95% left)	++ (++ means >95% left)	++ (++ means >95% left)	very heat stable	do not penetrate into or through the skin	no penetration								
CCCCCCCCOC(=O)C(=CC=CN(CCCN(CCCCN(CCCN(C=CC=C(C(=O)OCCCCCCCC)S(=O)(=O)c1ccccc1)Cc1ccccc1)CCCN(C=CC=C(C(=O)OCCCCCCCC)S(=O)(=O)c1ccccc1)Cc1ccccc1)CCCN(C=CC=C(C(=O)OCCCCCCCC)S(=O)(=O)c1ccccc1)Cc1ccccc1)Cc1ccccc1)S(=O)(=O)c1ccccc1 [Compound 8]	++ (++ means >95% left)	++ (++ means >95% left)	++ (++ means >95% left)	very heat stable	do not penetrate into or through the skin	no penetration								
CCCCCCCCOC(=O)C(=CC=CNCCN(CCNC=CC=C(C(=O)OCCCCCCCC)S(=O)(=O)c1ccccc1)CCNC=CC=C(C(=O)OCCCCCCCC)S(=O)(=O)c1ccccc1)S(=O)(=O)c1ccccc1 [Compound 10, reference compound]	++ (++ means >95% left)	+− (+− implies between 50-95% left)	− (− indicates <50% left)											
CCCCCCCCOC(=O)C(=CC=CNCCCN(CCCCN(CCCNC=CC=C(C(=O)OCCCCCCCC)S(=O)(=O)c1ccccc1)CCCNC=CC=C(C(=O)OCCCCCCCC)S(=O)(=O)c1ccccc1)CCCNC=CC=C(C(=O)OCCCCCCCC)S(=O)(=O)c1ccccc1)S(=O)(=O)c1ccccc1 [Compound 11, reference compound]	++ (++ means >95% left)	+− (+− implies between 50-95% left)	− (− indicates <50% left)											
CCCCCCCCOC(=O)C(=CC=CN(CCCC)CCN(C=CC=C(C(=O)OCCCCCCCC)S(=O)(=O)c1ccccc1)CCN(C=CC=C(C(=O)OCCCCCCCC)S(=O)(=O)c1ccccc1)CCCC)S(=O)(=O)c1ccccc1 [Compound 13]	++ (++ means >95% left)	++ (++ means >95% left)	++ (++ means >95% left)	very heat stable; also recorded: good heat stability			+	+	+	−	−	−		
CC(C)OC(=O)C(=CC=CN(CCCCCCN(C=CC=C(C(=O)OC(C)C)S(=O)(=O)c1ccccc1)Cc1ccccc1)CCCCCCN(C=CC=C(C(=O)OC(C)C)S(=O)(=O)c1ccccc1)Cc1ccccc1)S(=O)(=O)c1ccccc1 [Compound 17]	++ (++ means >95% left)	++ (++ means >95% left)	++ (++ means >95% left)				−	−	−	−	−	−		
CCCCC(CC)COC(=O)C(=CC=CN(CCCCCCN(C=CC=C(C(=O)OCC(CC)CCCC)S(=O)(=O)c1ccccc1)Cc1ccccc1)CCCCCCN(C=CC=C(C(=O)OCC(CC)CCCC)S(=O)(=O)c1ccccc1)Cc1ccccc1)S(=O)(=O)c1ccccc1 (centres unmarked) [Compound 18]	++ (++ means >95% left)	++ (++ means >95% left)	++ (++ means >95% left)				+	−	−	−	−	−		
CCCCCCCCCCCCCCCCCCOC(=O)C(=CC=CN(CCCCCCN(C=CC=C(C(=O)OCCCCCCCCCCCCCCCCCC)S(=O)(=O)c1ccccc1)Cc1ccccc1)CCCCCCN(C=CC=C(C(=O)OCCCCCCCCCCCCCCCCCC)S(=O)(=O)c1ccccc1)Cc1ccccc1)S(=O)(=O)c1ccccc1 [Compound 19]	++ (++ means >95% left)	++ (++ means >95% left)	++ (++ means >95% left)				+	+	+	+	+	+		
CCCCCCCCOC(=O)C(=CC=CN(C(C)=O)c1ccccc1)S(=O)(=O)c1ccccc1 [aminobutadiene 3, reference compound]					observed inside the skin sample	penetration							+ (a ‘+’ means that more than 50% of the substance penetrates the skin)	+ (a ‘+’ means that more than 50% of the substance penetrates the skin)

From patent publication US8318980B2, “UV absorbing compounds” (Fujifilm Manufacturing Europe B.V., priority 2007, dated 2012)
